{"source": "paper PMC8110578", "about": "“Phenylethynylbenzyl-modified biguanides inhibit pancreatic cancer tumor growth” (Scientific Reports, 2021)", "key": {"[1]": {"tested_on": "IMR90 fibroblasts", "assay": "In vitro growth inhibition screen at 5 µM, IMR90 fibroblasts", "assay_type": "cell-based, human", "details": "72 h", "from_the_text": "Figure 1 (A) Structure and crystal packing of previously studied PEB-disubstituted (A.1) and monosubstituted (A.2 and A.3) benzimidazolium salts. Compound A.1 is an efficient chloride transporter forming channels and generating holes in bacterial membranes and red blood cellular membranes. Compound A.2 penetrates phospholipid membranes but is less efficient as ion transporter as it forms more compact aggregates; its toxicity on RBC is lower than compound A.1. The replacement of the phenyl group with a methyl group in compound A.3 results in the formation of even more compact aggregates with even lower toxicity on RBC. (B) Structure of PEB-substituted biguanidium salts. For each biguanide we prepared three series of biguanidium salts with different counterions. (C) Synthesis of 4-(phenylethynyl)benzylbiguanide 1 and 4-(phenylethyl)benzylbiguanide 2; (a) Phenylacetylene, PdCl2PPh3, CuI, PPh3, Et3N, THF, 70 °C, o.n. (b) NaCN(BH3)3, EtOHNH4OAc sat./NH3, 80 °C, o.n (c) Dicyandiamide, TMSCl, THFanh., 145 °C, 1 h (d) Pd/C 10%, H2, EtOH/AcOEt, 60 °C, 2 h. (D) Synthesis of 4-(phenylethynylphenyl)biguanidium 3 and 4-(phenylethylphenyl)biguanidium 4 (a) (1) Boc2O, THF, 2 h, (2) Phenylacetylene, PdCl2PPh3, CuI, PPH3, Et3N, THF, 70°, o.n. (b) TFA, DCM, 60 °C, 2 h (c) Dicyandiamide, TMSCl, THFanh, 145 °C, 1 h (d) Pd/C 10%, H2, EtOH/AcOEt, 60 °C, 2 h. […]"}, "[2]": {"tested_on": "red blood cells", "assay": "Hemolytic activity of PEB-biguanidium salts", "assay_type": "cell-based", "details": "red blood cells 2% v/v in PBS, 1 h at 37 °C", "method": "The toxicity of PEB-Biguanidiums salts was estimated through their hemolytic activity by incubating red blood cells (RBC) with the compounds for 1 h (See Supplementary Table S13 and Supplementary Fig. S29).\nExperimental. Red blood cells in Alsever’s solution were centrifuged for 10 min at 300g, washed 3 times with PBS buffer, and resuspended in PBS at 2% v/v. To each well of a 96-well plate, 195 µL of red blood cell solution and 5 µL of biguanidium salt in DMSO were added, and the plate was incubated with light agitation for 1 h at 37 °C. The plate was then centrifuged for 10 min at 300g, and 50 µL of the supernatant solution of each well was transferred to another plate. Absorbance was measured at λ = 405 nm. Each measurement was performed in triplicate in three different experiments."}, "[3]": {"tested_on": "KP4 cells", "assay": "Growth assay (crystal violet), KP4 cells", "assay_type": "cell-based, human", "details": "Homo sapiens, KP-4, 72 h, KP4 cells, 3 days treatment, crystal violet retention assay; read-out: IC50 KP4", "method": "(§1) All chemicals were purchased from Aldrich Chemicals in their highest purity and used without further purification. Deuterated dimethylsulfoxide (DMSO-d^6) and deuterated chloroform (CDCl3) were purchased from CDN Isotopes. NMR spectra were recorded on Bruker advance 400 and 100 spectrometers. Coupling constants are given in hertz (Hz) and chemical shifts are given in parts per million (ppm, δ) measured relative to the residual solvent (the multiplicity of the signals are given as s: singlet, d: doublet, t: triplet, and m: multiplet). High-resolution mass spectra (HRMS) were recorded on a TSQ Quantum Ultra (Thermo Scientific) triple quadrupole with accurate mass option instrument (Université de Montréal Mass Spectrometry Facility). MS experiences were performed using an UltrafleXtreme MALDI TOF/TOF mass spectrometer equipped with a SmartBeam II Nd:Yag/355 nm laser operating at 1 kHz and providing a laser focus down to 20 μm in diameter (Bruker Daltonics, Billerica, MA). The data acquisition for MS was performed in positive ion mode using the linear geometry with flexControl 3.4 (Bruker Daltonics, Billerica, MA). Acceleration voltage was set to + 25 kV and all other instrumental parameters (delayed extraction parameters, source voltages, detector gain, laser energy, etc.) were optimized for maximum S/N for the drug compounds. L-α-Phosphatidylcholine was purchased from Avanti Polar Lipids. Transport and depolarization studies as well as absorbance measurements were performed on a Varian Cary Eclipse fluorescence spectrophotometer. The hemolysis assays were performed on a Fluostar Optima plate reader. Single crystals of C18H18F3N5O3S were obtained from chloroform. A suitable crystal was selected and analysed on a Bruker Venture Metaljet diffractometer. Crystal violet retention assay was used for cell growth assays and IC50 were determined using Prism (GraphPad). NAD/NADH quantitation colorimetric kit (#K337-100) from Biovision was used according to manufacturer’s instructions. ECAR (extracellular acidification rate) and OCR of KP4 cells (oxygen consumption rate) were measured on a Seahorse XF-24 (Agilent).\n(§2) Experimental. KP4 (Riken RCB1005) and PSN1 (ATCC: CRM-CRL-3211), were cultured in Dulbecco's modified Eagle's medium (DMEM) (Wisent, St-Bruno, QC) supplemented with 10 % of fetal bovine serum (FBS) (Wisent). HPNE hTERT (ATCC: CRL1423) were cultured in a mix of 75% DMEM without glucose (Sigma Cat#. D-5030) with additional 2 mM L-glutamine and 1.5 g/L sodium bicarbonate, 25% Medium M3 Base (Incell Corp. Cat# M300F- 500), fetal bovine serum 5% (wisent 10 ng/ml human recombinant EGF (Sigma-Aldrich), 5.5 mM D-glucose (Sigma-Aldrich), 750 ng/ml puromycin (Sigma-Aldrich). For dose-response assays, cells were seeded in 96 well plates (company). After 24 h, treatments were applied and cells were grown for 3 more days. Crystal violet retention assay used for cell growth assays were described previously^2. The data is expressed as relative absorbance of crystal violet extracted from the cells and diluted in 10 % acetic acid. IC50 were determined using Prism (GraphPad). Tumor spheres were grew according to Ferbeyre et al^3."}, "[4]": {"tested_on": "NB508 mouse pancreatic ductal adenocarcinoma cells", "assay": "In vitro growth inhibition screen at 5 µM, NB508 cells", "assay_type": "cell-based", "details": "72 h at 37 °C", "from_the_text": "Figure 1 (A) Structure and crystal packing of previously studied PEB-disubstituted (A.1) and monosubstituted (A.2 and A.3) benzimidazolium salts. Compound A.1 is an efficient chloride transporter forming channels and generating holes in bacterial membranes and red blood cellular membranes. Compound A.2 penetrates phospholipid membranes but is less efficient as ion transporter as it forms more compact aggregates; its toxicity on RBC is lower than compound A.1. The replacement of the phenyl group with a methyl group in compound A.3 results in the formation of even more compact aggregates with even lower toxicity on RBC. (B) Structure of PEB-substituted biguanidium salts. For each biguanide we prepared three series of biguanidium salts with different counterions. (C) Synthesis of 4-(phenylethynyl)benzylbiguanide 1 and 4-(phenylethyl)benzylbiguanide 2; (a) Phenylacetylene, PdCl2PPh3, CuI, PPh3, Et3N, THF, 70 °C, o.n. (b) NaCN(BH3)3, EtOHNH4OAc sat./NH3, 80 °C, o.n (c) Dicyandiamide, TMSCl, THFanh., 145 °C, 1 h (d) Pd/C 10%, H2, EtOH/AcOEt, 60 °C, 2 h. (D) Synthesis of 4-(phenylethynylphenyl)biguanidium 3 and 4-(phenylethylphenyl)biguanidium 4 (a) (1) Boc2O, THF, 2 h, (2) Phenylacetylene, PdCl2PPh3, CuI, PPH3, Et3N, THF, 70°, o.n. (b) TFA, DCM, 60 °C, 2 h (c) Dicyandiamide, TMSCl, THFanh, 145 °C, 1 h (d) Pd/C 10%, H2, EtOH/AcOEt, 60 °C, 2 h. The NMR spectra of the synthesized compounds are given in Supplementary Figs. S1–S24. (E) Relative growth of NB508 mouse pancreatic ductal adenocarcinoma cells and IMR90 fibroblasts exposed to 5 µM of PEB-biguanidium salts. Cells were incubated for 72 h at 37 °C. Errors bars represent the standard error of the mean (SEM), *p < 0.05, **p < 0.01, Student’s t test. (F) Crystal structure of 1b showing its self-assembly in the solid state. Crystal data is available in Supplementary Tables S1–S8 and crystal packing in Supplementary Fig. S25. TEXT PRINTED IN THE PICTURE: (A) A.1: HC50: 0.15 mM | (A) A.2: HC50: 1 mM | (A) A.3: HC50: 150 mM\nNB508 is an aggressive pro-metastatic pancreatic cancer cell line that we used previously to study the role of mitochondria in pancreatic cancer. […]."}, "[5]": {"tested_on": "HPNE cells (normal immortalized pancreatic epithelial cells)", "assay": "Growth assay (crystal violet), HPNE cells", "assay_type": "cell-based, human", "details": "3 days treatment, crystal violet retention assay", "method": ". The IC50 of most of the synthetic biguanides in HPNE cells was higher than for cancer cells (Supplementary Table S12).\nas §1, §2"}, "[6]": {"tested_on": "KP4 tumor sections", "assay": "KI67 and cleaved caspase 3 staining of tumor sections from treated mice", "assay_type": "in vivo, nude mice", "details": "50 mg/kg, tumor sections after treatment", "from_the_text": "(B) Body weight of mice seven days after treatment. […] Representative images shown. Scale bar = 100 µm.\nTo assess the mechanism of the antitumor activity, we stained tumor sections obtained from animals after the treatment protocol for proliferation marker KI67 and apoptosis marker cleaved caspase 3, and quantified the data according to the scoring key in Fig. 5C. […] However, there were no significant differences in staining for cleaved caspase 3 […]."}, "[7]": {"assay": "U-tube experiment (partition across a bulk hydrophobic solvent)", "assay_type": "physicochemical", "details": "250 µM on cis side, up to 72 h", "method": "(§3) Figure 2 (A) Partition of compounds in an U-tube experiment. Concentration of biguanide on the trans-side of the U-tube at 48 h and 72 h at 25 °C, after addition of 250 µM of biguanide on the cis-side. (B) Variation in the internal pH of HPTS-containing EYPC liposomes. Intravesicular solution: 1 mM HPTS, 10 mM HEPES, and 100 mM NaCl, adjusted to pH = 7.4, and extravesicular solution: 10 mM HEPES and 100 mM NaCl, adjusted to pH = 7.4. Biguanidiums were injected after 50 s at 5 mM (50 mol% relative to the 10 mM EYPC concentration), a NaOH pulse was induced at 300 s, and the liposomes were lysed with Triton-X at 550 s. Each curve is the average of three independent measurements. (C) Fluorescence of safranin O in the EYPC liposomes. Biguanidium salts were injected at 5 mM (50 mol% relative to the 10 mM EYPC concentration) at 50 s. Each curve is the average of three independent measurements. […] Mitochondrial isolation was performed according to the previously reported protocol.\nExperimental. U-tube experiment was prepared by adding 800 µL of dichloromethane in a U-shaped tube as a representation of the hydrophobic lipid membrane. On the receiving end (trans side) of the tube was added 300 µL of distilled water while the other side (cis side) was filled with 300 µL of a 250 µM solution of the compound of interest at 25°C. At 48h and 72h, 100 µL aliquot of the trans side was diluted in 900 µL methanol and monitored by LCMS (292 m/z). Area under curve (AUC) was measured and fitted on a calibration curve."}, "[8]": {"assay": "Safranin O assay, membrane potential of EYPC liposomes", "details": "5 mM (50 mol% relative to 10 mM EYPC)", "method": "as §3"}, "[9]": {"assay": "HPTS assay, internal pH of EYPC liposomes", "details": "5 mM (50 mol% relative to 10 mM EYPC), NaOH pulse at 300 s", "method": "as §3"}, "[10]": {"tested_on": "KP4 cells sub-cutaneous xenografts", "assay": "KP4 sub-cutaneous xenografts in nude mice", "details": "50 mg/kg/day IP, 5 day/week, from day 11 post engraftment, 37 days", "from_the_text": "This dose was chosen from previous work on biguanides to treat mice with pancreatic cancer.\nFigure 5 Progression of the volume of KP4 cells sub-cutaneous xenografts performed in nude mice over 37 days. […] (B) Body weight of mice seven days after treatment. […] Representative images shown. Scale bar = 100 µm. […] Results are shown in graphics comparing the percentage of cells stained in each category and the intensity of staining. (E,G) Images of the most representative phenotypes for KI67 staining (E) and cleaved caspase 3 (G).\nExperimental. All experiments were performed in accordance to the rules of the in vivo ethical committe of University of Montreal (CDEA #17-103). 6-7 weeks old female nude mice (Hsd:Athymic Nude- Foxn1nu, Envigo) were implanted sub-cutaneously with 750.000 KP4 cells in 100μl of a sterile mix of 20% Matrigel (Corning) in saline solution. Tumor volume was determined by using a caliper, following the formula 4/3*Π*(L*W*T) were L represent the length of the tumor, W, the width, and T, the thickness (all measured in millimeter). […] The compounds were dissolved in the vehicle: 45% Propyleneglycol (Sigma-Aldrich) +5% Tween 80 (Sigma-Aldrich) + ddH2O."}}, "note": "pIC50: −log10 of the molar value."}
{"smiles": "N=C(N)NC(=N)NCc1ccc(C#Cc2ccccc2)cc1", "note": "[1a, 4-(phenylethynyl)benzylbiguanide]", "values": [{"measurement": "Selectivity towards cancer cells (NB508 vs IMR90 fibroblasts)", "setting": "[1]", "value": "good selectivity towards cancer cells"}, {"measurement": "HC 10% (µM)", "setting": "[2]", "value": "> 175", "unit": "µM"}, {"measurement": "HC 10% (µg/ml)", "setting": "[2]", "value": "> 100", "unit": "µg/mL"}, {"measurement": "pIC50", "setting": "[3]", "value": 5.12}, {"measurement": "Growth inhibition of NB508 cells", "setting": "[4]", "value": "most important antiproliferative activities"}, {"measurement": "pIC50", "setting": "[5]", "value": 4.79}]}
{"smiles": "[H]/N=C(/N)N/C(=N/[H])NCCc1ccccc1", "note": "[phenformin, reference compound]", "values": [{"measurement": "KI67 staining in tumors", "setting": "[6]", "value": "to a smaller extent"}, {"measurement": "Crossing to the trans-aqueous side of the U-tube (in words)", "setting": "[7]", "value": "only traces"}, {"measurement": "Membrane depolarization (Safranin-O fluorescence)", "setting": "[8]", "value": "did not show this activity"}, {"measurement": "Change of internal vesicular pH (HPTS)", "setting": "[9]", "value": "no membrane activity"}, {"measurement": "Growth inhibition of NB508 cells", "setting": "[4]", "value": "no effect was observed"}, {"measurement": "Effect on tumor volume", "setting": "[10]", "value": "only modest or non-significant effects"}]}
